How the values were obtained:
Ysp2p [1] = target: T1, Ysp2p (Saccharomyces cerevisiae, UniProt Q06681); experiment: competition of tryptophan-DHE FRET with purified domain; type: binding
T1 construct: gene YSP2; StART-like domains Ysp2S1 (829-1027) and Ysp2S2 (1027-1244), His-tagged, each measured

Ysp2p [2] = target: T1, Ysp2p; experiment: tryptophan-DHE FRET with purified domain; type: binding
Lam4p [3] = target: T2, Lam4p (Saccharomyces cerevisiae, UniProt P38800); experiment: biochemical
T2 construct: gene LAM4

Lam4p [4] = target: T2, Lam4p; experiment: co-purification of […]-labelled cholesterol from HL60 cells (TLC); competition of DHE FRET; type: binding

T1 sequence (Q06681 829-1244): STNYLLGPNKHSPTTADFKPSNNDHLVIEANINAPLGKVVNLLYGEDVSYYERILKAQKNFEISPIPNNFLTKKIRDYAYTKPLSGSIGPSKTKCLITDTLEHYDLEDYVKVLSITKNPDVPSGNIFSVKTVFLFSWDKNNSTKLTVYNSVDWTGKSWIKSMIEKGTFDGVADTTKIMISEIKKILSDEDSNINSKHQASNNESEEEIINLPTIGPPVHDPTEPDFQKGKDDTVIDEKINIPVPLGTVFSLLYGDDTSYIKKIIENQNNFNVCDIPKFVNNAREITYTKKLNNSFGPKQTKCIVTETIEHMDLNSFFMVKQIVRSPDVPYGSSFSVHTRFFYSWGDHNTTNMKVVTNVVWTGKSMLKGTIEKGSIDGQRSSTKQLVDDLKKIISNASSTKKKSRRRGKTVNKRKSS
T2 sequence (P38800 946-1155): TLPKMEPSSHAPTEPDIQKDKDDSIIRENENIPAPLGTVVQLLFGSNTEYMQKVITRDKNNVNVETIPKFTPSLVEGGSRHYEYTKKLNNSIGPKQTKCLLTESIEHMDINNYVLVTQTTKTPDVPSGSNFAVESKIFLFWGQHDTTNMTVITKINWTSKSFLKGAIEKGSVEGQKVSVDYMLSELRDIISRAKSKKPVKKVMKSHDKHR

Q: `CC(C)[C@@H](C)/C=C/[C@@H](C)[C@H]1CC[C@H]2C3=CC=C4C[C@@H](O)CC[C@]4(C)[C@H]3CC[C@]12C` [erg, ergosterol] was tested. Which “competition of tryptophan-DHE FRET with purified domain” value (Ysp2p [1]) did it give?
A: All four purified StART-like domains bound both cholesterol (the predominant sterol in mammals) and ergosterol

Q: Which results are given for `CC(C)[C@@H](C)/C=C/[C@@H](C)[C@H]1CC[C@H]2C3=CC=C4C[C@@H](O)CC[C@]4(C)C3=CC[C@]12C` [DHE, dehydroergosterol]?
A: tryptophan-DHE FRET with purified domain (Ysp2p [2]): these proteins all produced strong FRET signals with DHE; Kd (Lam4p [3]): 500 nM

Q: Which results are given for `CC(C)CCC[C@@H](C)[C@H]1CC[C@H]2[C@@H]3CC=C4C[C@@H](O)CC[C@]4(C)[C@H]3CC[C@]12C` [chol, cholesterol]?
A: co-purification of 14C-labelled cholesterol from HL60 cells (TLC); competition o (Lam4p [4]): Lam4S2 extracted cholesterol but no other lipids from labelled HL60 cells; competition of tryptophan-DHE FRET with purified domain (Ysp2p [1]): All four purified StART-like domains bound both cholesterol (the predominant sterol in mammals) and ergosterol

Reference: paper PMC4463742, “A new family of StART domain proteins at membrane contact sites has a role in ER-PM sterol transport” (eLife, 2015)
